# From a melting point compilation (Tetko et al.; mined from patent text by program, amines drawn as free bases though some values may be those of a salt)
row,melting point [°C],SMILES
1,112 to 113,Cc1nnc(Cl)c(-c2c(F)cc(OCCCN(C)C)cc2F)c1-c1ccc(Cl)cc1
2,88 to 91,OCc1ccc2c(c1)C=C(n1ccnc1)CC2
3,105 to 110,CCON=C(C(=O)OC)c1nccc(N)n1
4,113 to 118,Cc1cncc2cccc(S(=O)(=O)Cl)c12
5,175 to 177,COc1ncc(CC2SC(N3CCOCC3)=NC2=O)cc1-c1ccc(O)c(C23CC4CC(CC(C4)C2)C3)c1 (centres undefined)
6,197,CCC1OC(=O)N(CCc2ccc(NC(=O)c3cccs3)cc2)N=C1c1ccc(OC)c(OC)c1 (centres undefined)
7,154 to 156,O=C(CCSCCOCCSCCC(=O)Nc1ccc(Nc2ccccc2)cc1)Nc1ccc(Nc2ccccc2)cc1
8,135 to 136,COC(=O)CCCC(=O)c1cc2c(c(S(N)(=O)=O)c1)OCC2
9,92.5 to 93.5,COCOc1ccc(CCCO)c(Oc2ncc(C(F)(F)F)cc2Cl)c1
10,233 to 235,CC1=NNC(c2ccc3c(c2)Nc2nccnc2S3)=NN1
11,163 to 168,COC(=O)CCCc1cc2cc(C(F)(F)F)ccc2n1S(=O)(=O)c1ccc2nc(C)sc2c1
12,160 to 162,Cn1c(=O)c2cn(S(=O)(=O)CCCCl)nc2n(C)c1=O
13,114 to 116,Cc1nc2c(c(-c3ccccc3)n1)CCN(c1ccnc([C@@H](C)O)n1)C2
14,276 to 278,O=[N+]([O-])c1ccc2c(c1)S(=O)(=O)N=C(NCC1CC1)N2
15,51.5 to 53,Cc1cc([N+](=O)[O-])cnc1CCCC#N
16,92 to 97,CCc1cc2c(cc1OC)C(CN1CCC(c3noc4cc(F)ccc34)CC1)=C2
17,255 to 260,CC1(C)OC(=O)Nc2ccc(-c3cc(C#N)cs3)cc21
18,69 to 70.5,CCOC(=O)Nc1ccc2ccccc2c1
19,98,NCC1COc2cc(Cl)cc(-c3ccc(C(F)(F)F)cc3C(F)(F)F)c2N1 (centres undefined)
20,204 to 205,CC1(C)OC(=S)Nc2ccc(-c3cc(F)cc(Cl)c3)cc21
21,228 to 230,Nn1c(=O)n(-c2cc(Cl)ccc2O)c2ccc(C(F)(F)F)cc21
22,127 to 129,CC(=O)OCC1OC(c2ccc(F)c(Cc3ccc(Br)s3)c2)C(OC(C)=O)C(OC(C)=O)C1OC(C)=O (centres undefined)
23,122,Cc1ccc(S(=O)(=O)NC(=O)C2C(=O)CC(C)CC2=O)cc1 (centres undefined)
24,98,COc1cc(OC)c([N+](=O)[O-])c(OC)c1NC=O

row,melting point [°C],SMILES
1,121 to 122,CCOC(=O)c1cn(Cc2ccccc2)nc1OCc1ccc(OCc2nc(-c3ccco3)oc2C)c(OCC)c1
2,101 to 103,Clc1ccc(-c2cc(-c3ccccc3)c(-c3ccccc3)s2)cc1Cl
3,139 to 141,CS(=O)(=O)OC[C@@H]1Cc2cc3ccccc3n2C[C@H]1COS(C)(=O)=O (relative stereo)
4,153 to 155,O=C(NCCc1cccc2ccc(OC3CCCCC3)cc12)C1CC1
5,71 to 73,COc1ccccc1N1CCN(CCNCCCN2CC=C(c3c[nH]c4cc(Cl)ccc34)CC2)CC1
6,157 to 161,O=c1c2c(n(-c3cccc(Cl)c3)c3ncccc13)CCN(Cc1ccccc1)C2
7,113,Cc1c(OC(=O)c2ccccc2)ccc2c1OC(C)(C)CC2=O
8,199,O=c1[nH]c2cc(Cl)ccc2n1C1CCN(CCNC(c2ccc(F)cc2)c2ccc(F)cc2)CC1
9,290 to 292,c1ccc2c(NCC3CCCCC3)c3cnn(C4CCCC4)c3nc2c1
10,57,COC1(OC)CCC2=C(CC(C)C3C2CCC2(C)CCCC32)C1 (centres undefined)
11,150 to 151,CCCCCCCNC(=O)Nc1ccc(OC)cc1NC(=O)c1cc(C(C)(C)C)c(O)c(C(C)(C)C)c1
12,214 to 216,O=C(O)Cn1c(Cc2ccccc2)ccc(NC(=O)CCc2ccccc2)c1=O
13,144 to 146,NC1CN(C(=O)Nc2ccc(C(F)(F)F)cc2)N=C1c1ccc(Cl)cc1 (centres undefined)
14,120 to 122,CNc1cc(C)c(O)c(C)c1C
15,106 to 107,COc1ccc(OC)c(C(O)CNC(=O)CN)c1 (centres undefined)
16,352 to 355,O=C(O)c1ccc(-c2nc3ccc([N+](=O)[O-])cc3s2)cc1
17,153 to 154,COc1ccc(Nc2ccc(C(=O)O)cc2)c2ccccc12
18,130 to 132,CCSC1=N[C@@H](c2ccccc2)[C@H](c2ccccc2)N1 (relative stereo)
19,215 to 220,CC(=O)c1cccc(-c2ccc(COc3ccc(C(=O)O)c(O)c3)cc2)c1
20,101,CCOC(=O)N1CCN(C(c2ccccc2)c2ccccc2)CC1(C)Cc1ccc(OC)c(OC)c1 (centres undefined)
21,52,COC(=O)Cc1ccc(OCC(C)NCC(O)c2cccc(F)c2)cc1 (centres undefined)
22,177 to 178,CCc1ccc(C(=O)N[C@@H]2CCc3cccc(N4CCN(C)CC4)c3C2)cc1
23,68 to 69,CCCCn1c(=Nc2ccccc2)sc2ncccc2c1=O
24,203 to 205,O=C(O)c1cn(C(c2ccccc2)(c2ccccc2)c2ccccc2)c(I)n1

row,melting point [°C],SMILES
1,68 to 69,CC(C)[C@@H](NC(=O)OCc1ccccc1)C(=O)C=[N+]=[N-]
2,85 to 87.5,COc1ccc(/C=C(\C#N)c2ccccc2OC)cc1OC1CCCC1
3,198 to 199,O=C(c1cc(-c2ccccc2)c(N2CCOCC2)s1)c1ccc(Cl)cc1Cl
4,170 to 172,CN1CCOc2nc(Cl)c(Cl)nc21
5,124 to 128,Nc1ncccc1OCc1c(F)cccc1F
6,112 to 114,CCOC(=O)C1=C(C)NC(=S)N(C(=O)OCC)C1c1ccccc1C (centres undefined)
7,117 to 118,CN1CCC(Nc2ccccc2C(=N)c2ccccc2)CC1
8,111 to 113,CCOc1cccc2oc(-c3ccccc3)cc(=O)c12
9,84 to 87,CCCCCCCCCCCCCCOC(=O)c1cc(C(=O)OCCCCCCCCCCCCCC)cc(N(CC(=O)O)CC(=O)O)c1
10,56 to 57,COc1c(OC2CCC(=O)CC2)ccnc1C
11,79 to 81,COc1ccc(CC(C(=O)O)N(CCCNC(=O)OC(C)(C)C)C(=O)CBr)cc1 (centres undefined)
12,150 to 152,COc1cc(C=O)ccc1NC(=O)OCC1c2ccccc2-c2ccccc21
13,144 to 146,CCC(=O)NC1Cc2ccccc2C(c2ccccc2)C1 (centres undefined)
14,154 to 156,COC(=O)c1cc(N)c(Oc2ccccc2)c(N2CCCC2)c1
15,248 to 250,CCn1ncc2c1ncc1c(N)nc3cc(C)nn3c12
16,143 to 145,N#CC(Sc1ccccc1)=C1SCCN1c1ccccc1
17,99 to 101,CC(C)c1cccc(C(C)C)c1NC(=O)CNC(C)c1ccccn1 (centres undefined)
18,88 to 90,Cc1ccc(C(=O)C2(n3ccnc3)CC2)cc1
19,175 to 177,N#Cc1ccc(OCCN2CCN(c3cc(Cl)nnc3Cl)CC2)cc1
20,115 to 118,Cc1ccc(C(C)C)c(OCCN(C)Cc2c(C)c(O)c(C)c(C)c2OCCO)c1
21,101 to 102,CN(C)C(=O)c1ccc(-c2ccc(Cl)cc2)o1
22,70 to 76,Cn1cnnc1SCCCCCN1CCN(c2cccc(C(F)(F)F)c2)CC1
23,192 to 194,CC(c1cccc(F)c1)n1ncc(-c2ccc(S(N)(=O)=O)cc2)c(-c2ccc(F)cc2)c1=O (centres undefined)
24,166 to 167,Cc1nc(-c2ccc(Cl)cc2)oc1COC(C)(C)C(=O)O

row,melting point [°C],SMILES
1,120 to 121,N#Cc1ccc(-c2cccc(C=O)c2O)cc1
2,125,CCCCCC(CC(=O)Nc1cc(CCCNC(N)=O)ccc1C(C)(C)C)c1ccc(OC)cc1OC (centres undefined)
3,114 to 115,CCOC(=O)C(=CNc1cccc(N2CCN(C)CC2)n1)C(=O)OCC
4,65 to 67,CCOC(=O)Cc1cn(-c2ncnc3ccccc23)c2ccccc12
5,135 to 137,CC(C)(C)c1ccc(C(O)CCCN2CCC(C3(O)c4ccccc4COc4ccccc43)CC2)cc1 (centres undefined)
6,160 to 162,N#Cc1cc(N2C(=O)C3=C(CCCC3)C2=O)c(F)cc1Cl
7,150 to 151,CCOC(=O)CN1C(=O)Nc2cccc(OC)c2C1C (centres undefined)
8,233,NS(=O)(=O)c1cccc(NC(=O)c2cnn3c(C(F)(F)F)cc(-c4ccc(C(F)(F)F)c(OCC(F)(F)F)c4)nc23)c1
9,81 to 82,OCc1cc(C(F)(F)F)ccc1I
10,163 to 167,CNc1c(NCCSCc2csc(CN(C)C)n2)c(=O)c1=O
11,138 to 140,Nc1cccc2c1-c1nc3ccccc3cc1CC2
12,65 to 67,COC(=O)c1ccc(Sc2ccc(OCCCCl)cc2)cc1
13,120,Clc1cnc(Oc2cccc(Oc3ncc(Cl)cn3)c2)nc1
14,68 to 69,CCSc1cnc(Oc2ccc(Cl)c(Cl)c2)cc1C#N
15,126 to 128,COc1cc(OCc2ccccn2)ccc1/C=C/C(=O)CC(=O)/C=C/c1cc2ccccc2o1
16,84,CCCO[C@@H](C)C(=O)Oc1ccc(C(=O)O)cc1
17,92,CCCCC(CC)CNCCOc1ccc2ccccc2c1 (centres undefined)
18,99 to 100,C1=C(c2nc(COc3ccc(CCCn4ccnc4)cc3)co2)CCc2ccccc21
19,210 to 212,O=C(CNc1ccccc1)Nc1ccc(Cl)cc1C(=O)O
20,107,c1ccc2c(c1)C[C@@H]1c3ccccc3N[C@H]21 (relative stereo)
21,100,CO[C@@H]1CNCC[C@H]1NC(=O)c1cccc(C(F)(F)F)c1 (relative stereo)

row,SMILES,melting point [°C]
1,COC(=O)C(=O)O[C@H]1C[C@@H](C(=O)OC)[C@]2(C)CC[C@H]3C(=O)O[C@H](c4ccoc4)C[C@]3(C)[C@H]2C1=O,241 to 244
2,Cc1cc(C(N)=O)ncc1C(c1c(F)ccc(F)c1F)S(=O)(=O)CCC(F)(F)F (centres undefined),190 to 191
3,COc1ccc(-c2sc3cc(OC)ccc3c2C(=O)c2cc(OC)cc(OC)c2)cc1,114 to 120
4,N#Cc1nn(-c2c(Cl)cc(C(F)(F)F)cc2Cl)c(N)c1-c1cccc2ccccc12,208
5,Cc1ccc(F)cc1NC(=O)c1cc([N+](=O)[O-])ccc1NC(=O)CF,217 to 219
6,CC(=O)OC(c1cn2c(nc3ccccc32)s1)C1(Br)C(=O)N2C(C(=O)OCc3ccc([N+](=O)[O-])cc3)=CS[C@@H]21 (some centres undefined),78
